Bounds are passed on as bounds.

The test has as its system MDA-MB-436 breast cancer cell line. In words: Cell viability assay (MDA-MB-436). The settings on record: Homo sapiens, 144 h; MDA-MB-436 cells, treated 6 days. It counts as cell-based. As for the experimental part:
2. Cell Viability Assay (MDA-MB-436)
Cell viability assay was performed by using MDA-MB-436 cell line to measure cytotoxicity of compounds in the present invention. MDA-MB-436 breast cancer cell line was seeded into 96-well plates at 37° C. under 5% CO2 atmosphere using DMEM/F12 (Gibco) containing 10% FBS (Hyclone). After 24 hr incubation, cells were treated with the invented compounds at various concentrations for 6 days. The medium was changed every 3 day. 6 days later, A fluorescence reagent was used to determine the IC50 values.
For orientation: IC50 means the concentration at which inhibition is half-maximal. The low end stands for higher potency, the high end for lower potency. With `CC1(C)NC(=O)N(C2CN(C(=O)c3cc(Cc4n[nH]c(=O)c5ccccc45)ccc3F)C2)C1=O` [Compound I-14, 3-(1-(2-fluoro-5-((4-oxo-3,4-dihydrophthalazin-1-yl)methyl)benzoyl)azetidin-3-yl)-5,5-dimethylimidazolidine-2,4-dione], the IC50 was 50 to 300 nM.

Consider `O=C(c1cc(Cc2n[nH]c(=O)c3ccccc23)ccc1F)N1CC(C(=O)N2CCC(F)(F)C2)C1` [Compound I-19, 4-(3-(3-(3,3-difluoropyrrolidine-1-carbonyl)azetidine-1-carbonyl)-4-fluorobenzyl)phthalazin-1(2H)-one], for which the IC50 lay within 50 to 300 nM.

`O=C(c1cc(Cc2n[nH]c(=O)c3ccccc23)ccc1F)N1CC(C(=O)N2CCCC2)C1` [Compound I-22, 4-(4-fluoro-3-(3-(pyrrolidine-1-carbonyl)azetidine-1-carbonyl)benzyl)phthalazin-1(2H)-one] had an IC50 of 50 to 300 nM.

Compound `CN(C)[C@H]1CCN(C(=O)C2CN(C(=O)c3cc(Cc4n[nH]c(=O)c5ccccc45)ccc3F)C2)C1` [Compound I-24, (S)-4-(3-(3-(3-(dimethylamino)pyrrolidine-1-carbonyl)azetidine-1-carbonyl)-4-fluorobenzyl)phthalazin-1(2H)-one] gave an IC50 of 300 to 1000 nM.

In turn, `O=C(c1cc(Cc2n[nH]c(=O)c3ccccc23)ccc1F)N1CC[C@@H](NC2CC2)C1` [Compound I-29, (R)-4-(3-(3-(cyclopropylamino)pyrrolidine-1-carbonyl)-4-fluorobenzyl)phthalazin-1(2H)-one] gave an IC50 of 300 to 1000 nM.

Compound `O=C(c1cc(Cc2n[nH]c(=O)c3ccccc23)ccc1F)N1CC(N(CC2CC2)CC2CC2)C1` [Compound I-34, 4-(3-(3-(bis(cyclopropylmethyl)amino)azetidine-1-carbonyl)-4-fluorobenzyl)phthalazin-1(2H)-one] showed an IC50 of 300 to 1000 nM.

In turn, `CC(C)(C)CNC1CN(C(=O)c2cc(Cc3n[nH]c(=O)c4ccccc34)ccc2F)C1` [Compound I-37, 4-(4-fluoro-3-(3-(neopentylamino)azetidine-1-carbonyl)benzyl)phthalazin-1(2H)-one] gave an IC50 of 5 to 50 nM.

Compound `CC1(C)CCCC1NC1CN(C(=O)c2cc(Cc3n[nH]c(=O)c4ccccc34)ccc2F)C1` (stereo not shown) [Compound I-38, 4-(3-(3-((2,2-dimethylcyclopentyl)amino)azetidine-1-carbonyl)-4-fluorobenzyl)phthalazin-1(2H)-one] came in with an IC50 of 5 to 50 nM.

`CCOC(=O)C1=C(NC2CN(C(=O)c3cc(Cc4n[nH]c(=O)c5ccccc45)ccc3F)C2)CCC1` [Compound I-39, ethyl 2-((1-(2-fluoro-5-((4-oxo-3,4-dihydrophthalazin-1-yl)methyl)benzoyl)azetidin-3-yl)amino)cyclopent-1-enecarboxylate] gave an IC50 of 300 to 1000 nM.

In the case of `O=C(c1cc(Cc2n[nH]c(=O)c3ccccc23)ccc1F)N1CC(NC(C2CC2)C2CC2)C1` [Compound I-45, 4-(3-(3-((dicyclopropylmethyl)amino)azetidine-1-carbonyl)-4-fluorobenzyl)phthalazin-1(2H)-one], the IC50 lay within 5 to 50 nM.

Consider `CC(C)CC(C)NC1CN(C(=O)c2cc(Cc3n[nH]c(=O)c4ccccc34)ccc2F)C1` (stereo not shown) [Compound I-46, 4-(4-fluoro-3-(3-((4-methylpentan-2-yl)amino)azetidine-1-carbonyl)benzyl)phthalazin-1(2H)-one], for which the half-maximal inhibitory concentration (IC50) was in the range of 5 to 50 nM.

`CCCC(C)NC1CN(C(=O)c2cc(Cc3n[nH]c(=O)c4ccccc34)ccc2F)C1` (stereo not shown) [Compound I-48, 4-(4-fluoro-3-(3-(pentan-2-ylamino)azetidine-1-carbonyl)benzyl)phthalazin-1(2H)-one] showed an IC50 of no more than 5 nM.

With `CC(NC1CN(C(=O)c2cc(Cc3n[nH]c(=O)c4ccccc34)ccc2F)C1)C1(C)CC1` (stereo not shown) [Compound I-49, 4-(4-fluoro-3-(3-((1-(1-methylcyclopropyl)ethyl)amino)azetidine-1-carbonyl)benzyl)phthalazin-1(2H)-one], the IC50 is 5 to 50 nM.

As for `CC(CNC1CN(C(=O)c2cc(Cc3n[nH]c(=O)c4ccccc34)ccc2F)C1)C(F)(F)F` (stereo not shown) [Compound I-50, 4-(4-fluoro-3-(3-((3,3,3-trifluoro-2-methylpropyl)amino)azetidine-1-carbonyl)benzyl)phthalazin-1(2H)-one], the IC50 lay in the range of 50 to 300 nM.

In turn, `C=CCNC1CN(C(=O)c2cc(Cc3n[nH]c(=O)c4ccccc34)ccc2F)C1` [Compound I-51, 4-(3-(3-(allylamino)azetidine-1-carbonyl)-4-fluorobenzyl)phthalazin-1(2H)-one] registered an IC50 of 5 to 50 nM.

The compound `CC(C)CCNC1CN(C(=O)c2cc(Cc3n[nH]c(=O)c4ccccc34)ccc2F)C1` [Compound I-52, 4-(4-fluoro-3-(3-(isopentylamino)azetidine-1-carbonyl)benzyl)phthalazin-1(2H)-one] displayed an IC50 of no more than 5 nM.

Take `CC(C)=CCNC1CN(C(=O)c2cc(Cc3n[nH]c(=O)c4ccccc34)ccc2F)C1` [Compound I-54, 4-(4-fluoro-3-(3-((3-methylbut-2-en-1-yl)amino)azetidine-1-carbonyl)benzyl)phthalazin-1(2H)-one]: the IC50 fell in the range of 5 to 50 nM.

`O=C(c1cc(Cc2n[nH]c(=O)c3ccccc23)ccc1F)N1CC(NCC2CCCC2)C1` [Compound I-55, 4-(3-(3-((cyclopentylmethyl)amino)azetidine-1-carbonyl)-4-fluorobenzyl)phthalazin-1(2H)-one] had a 50% inhibitory concentration (IC50) of 5 to 50 nM.

The compound `O=C(c1cc(Cc2n[nH]c(=O)c3ccccc23)ccc1F)N1CC(NCCCC(F)(F)F)C1` [Compound I-56, 4-(4-fluoro-3-(3-((4,4,4-trifluorobutyl)amino)azetidine-1-carbonyl)benzyl)phthalazin-1(2H)-one] displayed an IC50 of 300 to 1000 nM.

Turning to `CCCCCNC1CN(C(=O)c2cc(Cc3n[nH]c(=O)c4ccccc34)ccc2F)C1` [Compound I-57, 4-(4-fluoro-3-(3-(pentylamino)azetidine-1-carbonyl)benzyl)phthalazin-1(2H)-one], the IC50 is 5 to 50 nM.

In the case of `O=C(c1cc(Cc2n[nH]c(=O)c3ccccc23)ccc1F)N1CC(NCCC2CC2)C1` [Compound I-58, 4-(3-(3-((2-cyclopropylethyl)amino)azetidine-1-carbonyl)-4-fluorobenzyl)phthalazin-1(2H)-one], the IC50 is 5 to 50 nM.

On to `CCCNC1CN(C(=O)c2cc(Cc3n[nH]c(=O)c4ccccc34)ccc2F)C1` [Compound I-59, 4-(4-fluoro-3-(3-(propylamino)azetidine-1-carbonyl)benzyl)phthalazin-1(2H)-one], for which the IC50 fell in the range of 5 to 50 nM.

`CN(Cc1ccncc1)[C@@H]1CCN(C(=O)c2cc(Cc3n[nH]c(=O)c4ccccc34)ccc2F)C1` [Compound I-61, (R)-4-(4-fluoro-3-(3-(methyl(pyridin-4-ylmethyl)amino)pyrrolidine-1-carbonyl)benzyl)phthalazin-1(2H)-one] yielded an IC50 of 50 to 300 nM.

For `CN(Cc1cccnc1)C1CN(C(=O)c2cc(Cc3n[nH]c(=O)c4ccccc34)ccc2F)C1` [Compound I-66, 4-(4-fluoro-3-(3-(methyl(pyridin-3-ylmethyl)amino)azetidine-1-carbonyl)benzyl)phthalazin-1(2H)-one], the IC50 fell in the range of 50 to 300 nM.

As for `CN(C1CC1)C1CN(C(=O)c2cc(Cc3n[nH]c(=O)c4ccccc34)ccc2F)C1` [Compound I-69, 4-(3-(3-(cyclopropyl(methyl)amino)azetidine-1-carbonyl)-4-fluorobenzyl)phthalazin-1(2H)-one], the IC50 was in the range of 50 to 300 nM.

In the case of `CCN(C1CC1)C1CN(C(=O)c2cc(Cc3n[nH]c(=O)c4ccccc34)ccc2F)C1` [Compound I-70, 4-(3-(3-(cyclopropyl(ethyl)amino)azetidine-1-carbonyl)-4-fluorobenzyl)phthalazin-1(2H)-one], the IC50 fell in the range of 50 to 300 nM.

For `CN(C1CCC1)C1CN(C(=O)c2cc(Cc3n[nH]c(=O)c4ccccc34)ccc2F)C1` [Compound I-71, 4-(3-(3-(cyclobutyl(methyl)amino)azetidine-1-carbonyl)-4-fluorobenzyl)phthalazin-1(2H)-one], the IC50 fell in the range of 50 to 300 nM.

As for `O=C(c1cc(Cc2n[nH]c(=O)c3ccccc23)ccc1F)N1CC(N2CCC(F)(F)C2)C1` [Compound I-73, 4-(3-(3-(3,3-difluoropyrrolidin-1-yl)azetidine-1-carbonyl)-4-fluorobenzyl)phthalazin-1(2H)-one], the IC50 lay within 50 to 300 nM.

In the case of `O=C(c1cc(Cc2n[nH]c(=O)c3ccccc23)ccc1F)N1CC(N2CCC(F)CC2)C1` [Compound I-74, 4-(4-fluoro-3-(3-(4-fluoropiperidin-1-yl)azetidine-1-carbonyl)benzyl)phthalazin-1(2H)-one], the IC50 lay within 5 to 50 nM.

Turning to `O=C(c1cc(Cc2n[nH]c(=O)c3ccccc23)ccc1F)N1CC(N2CCCC2)C1` [Compound I-76, 4-(4-fluoro-3-(3-(pyrrolidin-1-yl)azetidine-1-carbonyl)benzyl)phthalazin-1(2H)-one], the IC50 lay within 5 to 50 nM.

Consider `O=C(c1cc(Cc2n[nH]c(=O)c3ccccc23)ccc1F)N1CC(N2CCCCC2)C1` [Compound I-77, 4-(4-fluoro-3-(3-(piperidin-1-yl)azetidine-1-carbonyl)benzyl)phthalazin-1(2H)-one], for which the IC50 was 50 to 300 nM.

Regarding `CN1CCN(C2CN(C(=O)c3cc(Cc4n[nH]c(=O)c5ccccc45)ccc3F)C2)CC1` [Compound I-78, 4-(4-fluoro-3-(3-(4-methylpiperazin-1-yl)azetidine-1-carbonyl)benzyl)phthalazin-1(2H)-one], the IC50 lay within 300 to 1000 nM.

On to `O=C(c1cc(Cc2n[nH]c(=O)c3ccccc23)ccc1F)N1CC(Nc2ccccc2)C1` [Compound I-79, 4-(4-fluoro-3-(3-(phenylamino)azetidine-1-carbonyl)benzyl)phthalazin-1(2H)-one], for which the IC50 lay within 50 to 300 nM.

As to `C#CCNC1CN(C(=O)c2cc(Cc3n[nH]c(=O)c4ccccc34)ccc2F)C1` [Compound I-81, 4-(4-fluoro-3-(3-(prop-2-yn-1-ylamino)azetidine-1-carbonyl)benzyl)phthalazin-1(2H)-one], the IC50 was in the range of 50 to 300 nM.
